Structures can show the parent of a compound that is named as a salt.
What follows are compounds tested on rat pituitary cells (assay: growth hormone secretion in rat pituitary cell cultures (GH release, RIA)). Conditions: 0.25 h; GH release from cultured rat anterior pituitary cells, 15 min incubation at 37° C., rat GH measured by double antibody RIA; read-out: ED50 (the source's name).
Assay type: cell-based
Description: The bioassay employed for the determination of growth hormone secretion in rat pituitary cell cultures has been previously described--Cheng, K.; Chan, W. W.-S; Barreto, A.; Convey, E. M.; Smith, R. G. Endocrinology 124: 2791-2798 (1989)--and is summarized here: The Wistar male rats (150-200 grams) were obtained from Charles River Laboratories (Wilmington, Mass). Rats were maintained at a constant temperature (25° C.) on a 14-hr light, 10-hr dark cycle. Rat chow and water were available ad libitum. The animals were sacrificed by decapitation and anterior lobes of the pituitary quickly removed. Rat pituitary cells were isolated from pituitaries by enzymatic digestion with 0.2% collagenase and 0.2% hyaluronidase in Hank's Balanced Salt Solution. For culture, the cells were suspended in culture medium and adjusted to 1.5×10^5 cells/ml, and 1.0 ml of this suspension was placed in each well of a 24-well tray (Costar, Cambridge, Mass.). Cells were maintained in a humidified 5% CO2 -95% air atmosphere at 37° C. for 3 to 4 days. The culture medium consisted of DMEM containing 0.37% NaHCO3, 10% horse serum, 2.5% fetal bovine serum, 1% non-essential amino acids, 1% glutamine, 1% nystatin, and 0.1% gentamycin. On the day of an experiment, cells were washed twice 11/2 hrs prior to and once more immediately before the start of the experiment with the above culture medium containing 25 mM HEPES, pH 7.4. GH release was initiated by adding 1 ml of fresh medium containing test agents to each well in quadruplicate. Incubation was carded out at 37° C. for 15 min. After incubation, medium was removed and centrifuged at 2,000×g for 15 min to remove any cellular material. The supernatant fluid was removed and assayed for GH content. Rat GH in culture medium was measured by a double antibody RIA procedure using materials obtained from Dr. A. F. Parlow (Harbor-UCLA medical Center, Torrance, Calif.) and expressed in terms of the standard rat GH RP-2. ED50 values for test compounds were computed by fitting a four-parameter logistic function to the dose-response curve. Least squares estimates of the four-parameter logistic function coefficients and their variances were derived using the iterative algorithm described by Bates and Watts.
For `CC(C)(N)CC(=O)N[C@H](CCc1ccccc1)C(=O)NCc1ccc(-c2ccccc2-c2nnn[nH]2)cc1` [Example 1, (R)-α-[(3-Amino-3-methyl-1-oxobutyl)amino]-N-[[2'-(1H-tetrazol-5-yl)[1,1'-biphenyl]-4-yl]methyl]benzene-butanamide, trifluoroacetate], the EC50 was > 500 nM.
With `CC(C)(N)CC(=O)N[C@H](Cc1ccccc1)C(=O)NCc1ccc(-c2ccccc2-c2nnn[nH]2)cc1` [Example 2, (R)-α-[(3-Amino-3-methyl-1-oxobutyl)amino]-N-[[2'-(1H-tetrazol-5-yl)[1,1'-biphenyl]-4-yl]methyl]benzene-propanamide, trifluoroacetate] the EC50 was < 500 nM.
In the case of `CC(C)(N)CC(=O)N[C@H](Cc1c[nH]c2ccccc12)C(=O)NCc1ccc(-c2ccccc2-c2nnn[nH]2)cc1` [Example 3, (R)-α-[(3-Amino-3-methyl-1-oxobutyl)amino]-N-[[2'-(1H-tetrazol-5-yl)[1,1'-biphenyl]-4-yl]methyl]-1H-indole-3-propanamide, trifluoroacetate], the EC50 is reported as < 500 nM.
For `CC[C@@H](NC(=O)CC(C)(C)N)C(=O)N(Cc1ccc(-c2ccccc2-c2nnn[nH]2)cc1)c1ccccc1` [Example 4, (R)-2-[(3-Amino-3-methyl-1-oxobutyl)amino]-N-phenyl-N-[[2'-(1H-tetrazol-5-yl)[1,1'-biphenyl]-4-yl]methyl]butanamide, trifluoroacetate], the EC50 was > 500 nM.
For `CC(C)(N)CC(=O)NCC(=O)NCc1ccc(-c2ccccc2-c2nnn[nH]2)cc1` [Example 5, 2-[(3-Amino-3-methyl-1-oxobutyl)amino]-N-[[2'-(1H-tetrazol-5-yl)[1,1'-biphenyl]-4-yl]methyl]acetamide, trifluoroacetate], the EC50 was > 500 nM.
In the case of `CNC(=O)Nc1ccccc1-c1ccc(CNC(=O)[C@@H](Cc2c[nH]c3ccccc23)NC(=O)C(C)(C)N)cc1` [Example 6, (R)-α-[(2-Amino-2-methyl-1-oxopropyl)amino]-N-[[2'-[[(methylamino)carbonyl]amino][1,1'-biphenyl]-4-yl]methyl]-1H-indole-3-propanamide, trifluoroacetate], the EC50 is reported as > 500 nM.
With `CN(Cc1ccc(-c2ccccc2-c2nnn[nH]2)cc1)C(=O)[C@@H](Cc1c[nH]c2ccccc12)NC(=O)C(C)(C)N` [Example 13, (R)-α-[(2-Amino-2-methyl-1-oxopropyl)amino]-N-methyl-N-[[2'-(1H-tetrazol-5-yl)[1,1'-biphenyl]-4-yl]methyl]-1H-indole-3-propanamide, trifluoroacetate] the EC50 was > 500 nM.
In the case of `CNC(=O)Nc1ccccc1-c1ccc(CNC(=O)[C@@H](Cc2c[nH]c3ccccc23)NC(=O)CC(C)(C)N)cc1` [Example 15, (R)-α-[(3-Amino-3-methyl-1-oxobutyl)amino]-N-[[2'-[[(methylamino)carbonyl]amino][1,1'-biphenyl]-4-yl]-methyl]-1H-indole-3-propanamide, trifluoroacetate], the EC50 is reported as > 500 nM.
With `CC(C)(N)C(=O)N[C@H](Cc1c[nH]c2ccccc12)C(=O)NCc1ccc(-c2ccccc2NC(=O)NCCO)cc1` [Example 16, (R)-α-[(2-Amino-2-methyl-1-oxopropyl)amino]-N-[[2'-[[(2-hydroxyethylamino)carbonyl]amino][1,1'-biphenyl]-4-yl]-methyl]-1H-indole-3-propanamide, trifluoroacetate] the EC50 was > 500 nM.
With `CC(C)(N)CC(=O)N[C@H](Cc1c[nH]c2ccccc12)C(=O)NCc1ccc(-c2ccccc2NC(=O)NCCO)cc1` [Example 17, (R)-α-[(3-Amino-3-methyl-1-oxobutyl)amino]-N-[[2'-[[(2-hydroxyethylamino)carbonyl]amino][1,1'-biphenyl]-4-yl]-methyl]-1H-indole-3-propanamide, trifluoroacetate] the EC50 was > 500 nM.
`CNC(=O)Nc1ccccc1-c1ccc(CNC(=O)[C@@H](COCc2ccccc2)NC(=O)C(C)(C)N)cc1` [Example 23, (R)-α-[(2-Amino-2-methyl-1-oxopropyl]amino]-N-[[2'-[[(methylamino)carbonyl]amino][1,1'-biphenyl]-4-yl]methyl]-3-[(phenylmethyl)oxy]propanamide, trifluoroacetate] was tested, and the EC50 was > 500 nM.

Same assay, conditions: GH release from cultured rat anterior pituitary cells, 15 min incubation at 37° C., rat GH measured by double antibody RIA; read-out: ED50 (the source's name)
With `CN(Cc1ccc(-c2ccccc2-c2nnn[nH]2)cc1)C(=O)[C@@H](CCc1ccccc1)NC(=O)C(C)(C)N.O=C(O)C(F)(F)F` [Example 7a, (R)-α-[(2-Amino-2-methyl-1-oxypropyl)amino]-N-methyl-N-[[2'-(1H-tetrazol-5-yl)-[1,1'-biphenyl]-4-yl]methyl]benzenebutanamide trifluoroacetate] the EC50 was < 500 nM.
In the case of `CN(Cc1ccc(-c2ccccc2C#N)cc1)C(=O)[C@@H](CCc1ccccc1)NC(=O)C(C)(C)N.O=C(O)C(F)(F)F` [Example 7b, (R)-α-[(2-amino-2-methyl-1-oxypropyl)amino]-N-[[2'-cyano-[1,1'-biphenyl]-4-yl]methyl]-N-methyl-benzenebutanamide trifluoroacetate], the EC50 is reported as > 500 nM.
For `CN(Cc1ccc(-c2ccccc2-c2nnn[nH]2)cc1)C(=O)[C@@H](CCc1ccccc1)NC(=O)CC(C)(C)N.O=C(O)C(F)(F)F` [Example 8a, (R)-α-[(3-Amino-3-methyl-1-oxybutyl)amino]-N-methyl-N-[[2'-(1H-tetrazol-5-yl)-[1,1'-biphenyl]-4-yl]methyl]benzenebutanamide, trifluoroacetate], the EC50 was > 500 nM.
With `CNC(=O)NCc1ccccc1-c1ccc(CN(C)C(=O)[C@@H](CCc2ccccc2)NC(=O)C(C)(C)N)cc1.O=C(O)C(F)(F)F` [Example 9] the EC50 was < 500 nM.
For `CNC(=O)NCc1ccccc1-c1ccc(CN(C)C(=O)[C@@H](CCc2ccccc2)NC(=O)CC(C)(C)N)cc1.O=C(O)C(F)(F)F` [Example 10], the EC50 was < 500 nM.
For `CN(Cc1ccc(-c2ccccc2-c2nnn[nH]2)cc1)C(=O)[C@@H](CCc1ccccc1)NC(=O)CCC(C)(C)N.O=C(O)C(F)(F)F` [Example 11, (R)-α-[(4-Amino-4-methyl-1-oxopentyl)amino]-N-methyl-N-[[2'-(1H-tetrazol-5-yl)[1,1'-biphenyl]-4-yl]methyl]benzenebutan amide, trifluoroacetate], the EC50 was < 500 nM.
In the case of `CNC(=O)NCc1ccccc1-c1ccc(CN(C)C(=O)[C@@H](CCc2ccccc2)NC(=O)CCC(C)(C)N)cc1.O=C(O)C(F)(F)F` [Example 12], the EC50 is reported as < 500 nM.
For `CNC(=O)NCc1ccccc1-c1ccc(CN(C)C(=O)[C@@H](Cc2c[nH]c3ccccc23)NC(=O)C(C)(C)N)cc1.O=C(O)C(F)(F)F` [Example 14], the EC50 was < 500 nM.
`CCN(Cc1ccc(-c2ccccc2-c2nnn[nH]2)cc1)C(=O)[C@@H](CCc1ccccc1)NC(=O)C(C)(C)N.O=C(O)C(F)(F)F` [Example 18, (R)-α-[(2-Amino-2-methyl-1-oxypropyl)amino]-N-ethyl-N-[[2'-(1H-tetrazol-5-yl)-[1,1'-biphenyl]-4-yl]methyl]benzenebutanamide, trifluoroacetate] was tested, and the EC50 was > 500 nM.
In the case of `CCN(Cc1ccc(-c2ccccc2-c2nnn[nH]2)cc1)C(=O)[C@@H](CCc1ccccc1)NC(=O)CC(C)(C)N.O=C(O)C(F)(F)F` [Example 19, (R)-α-[(3-Amino-3-methyl-1-oxybutyl)amino]-N-ethyl-N-[[2'-(1H-tetrazol-5-yl)-[1,1'-biphenyl]-4-yl]methyl]benzenebutanamide, trifluoroacetate], the EC50 is reported as > 500 nM.
`CCN(Cc1ccc(-c2ccccc2CNC(=O)NC)cc1)C(=O)[C@@H](CCc1ccccc1)NC(=O)C(C)(C)N.O=C(O)C(F)(F)F` [Example 20, (R)-α-[(2-Amino-2-methyl-1-oxypropyl)amino]-N-ethyl-N-[[(2'-[((methylamino)carbonyl)aminomethyl])-[1,1'-biphenyl]-4-yl]methyl]benzenebutanamide,trifluoroacetate] was tested, and the EC50 was < 500 nM.
`CCN(Cc1ccc(-c2ccccc2CNC(=O)NC)cc1)C(=O)[C@@H](CCc1ccccc1)NC(=O)CC(C)(C)N.O=C(O)C(F)(F)F` [Example 21] was tested, and the EC50 was < 500 nM.
For `CCCN(Cc1ccc(-c2ccccc2-c2nnn[nH]2)cc1)C(=O)[C@@H](CCc1ccccc1)NC(=O)C(C)(C)N.O=C(O)C(F)(F)F` [Example 22, (R)-α-[(2-Amino-2-methyl-1-oxypropyl)amino]-N-[[2'-(1H-tetrazol-5-yl)-[1,1'-biphenyl]-4-yl]methyl]-N-(propyl)benzenebutanamide, trifluoroacetate], the EC50 was < 500 nM.
With `CNC(=O)Nc1ccccc1-c1ccc(CNC(=O)[C@@H](COCc2ccccc2)NC(=O)CC(C)(C)N)cc1.O=C(O)C(F)(F)F` [Example 24] the EC50 was > 500 nM.

Reference: patent US5726319A, “Biphenyl substituted dipeptide analogs promote release of growth hormone” (Merck & Co., Inc., priority 1995, dated 1998)
